Test results taken from patent US9000027B2, “Chk1 suppresses a caspase-2 apoptotic response to DNA damage that bypasses p53, bcl-2 and caspase-3” (Dana-Farber Cancer Institute, Inc., priority 2008, dated 2015).

Assays:
myeloid cells = experiment: Quantification of myeloid cells (mpo/l-plastin in situ hybridization) in irradiated embryos; type: in vivo, zebrafish; details: p53^e7/e7 background, IR, 28 hpf
Text: FIG. 2 provides a series of fluorescent images, western blot images, in situ hybridization images and two sets of graphs as outlined below. chk1 knockdown radiosensitizes p53 mutants but is otherwise compatible with normal zebrafish development. (A) Fluorescence images of representative embryos of indicated genotypes+/−chk1 MO after 0- or 12.5-Gy IR. 5 bpmmMO, 5-base-pair mismatch MO. (B) Quantified AO responses of indicated genotypes with or without IR (12.5 Gy) and chk1 MO. Gray bars, p53^+/+ background; black bars, p53^e7/e7 background. AO staining was quantified in ≧8 embryos per condition, with ≧1000 embryos scored. All data are reported as means+/−SEM. ***P<0.0001 (two-tailed Student's t-test). […] (E) Fluorescence images of representative embryos of indicated genotypes. p53^e6 is the N168K mutation, corresponding to human residue 200. p53MO, MO against the p53 5′UTR. (F) Fluorescence images of live transgenic embryos injected with the indicated MOs at the 1-cell stage and expressing EGFP in the notochord (top, embryos photographed at 24 hpf) or in myeloid progenitors (bottom, embryos photographed at 16.5 hpf). […] (G) Quantification of myeloid cells in 28 hpf embryos generated as indicated (x-axis) and processed as in panel H. Gray bars, p53^+/+ background; black bars, p53^e7/e7 background. mpo/lplastin staining was quantified in 15 embryos per condition. […]

HeLa cells = experiment: Cell viability assay (CellTiter-Glo) after IR; type: cell-based, human; details: 10 Gy, 72 hpIR
Method: For the cell viability assay, Tg(BCL2)^− and Tg(BCL2)^+ H218 cells were seeded into black 96-well plates (BD Bioscience) at a density of 1000 cells per well on day 1. 24-well sets were treated with DMSO or Gö6976 (1 μM), and plates were exposed to 0 or 10 Gy IR on day 2. After 72 hr, cellular viability was measured with the CellTiter-Glo Luminescent Cell Viability Assay kit (Promega) according to the manufacturer's instructions. Cellular viability for each well was calculated as a percentage of the mean viability of DMSO-treated, non-irradiated cells. The mean cellular viability and SEM were calculated and plotted with GraphPad Prism version 3 (GraphPad Software, San Diego Calif., USA). Each viability experiment was performed twice.

ATM = experiment: Western blot of ATM activity (Chk2 phosphorylation at Thr68) in HeLa cells; type: cell-based, human; details: 10 Gy IR+Gö6976 1 μM
Method: Protein extract (5-60 μg) was added to 4× gel loading buffer and 10× denaturing solution (Invitrogen) in appropriate proportions, and samples were incubated at 70° C. for 10 min. Samples were run at 200V for 1 hr on a 4-12% Bis-tris gradient gel (Invitrogen). After electrophoresis, samples were transferred for 1.5 hr (350 mA) to a Nitrocellulose membrane (Millipore) using a submerged transfer apparatus (Bio-Rad). Membranes were then blocked with 5% milk in Tris-buffered saline with 0.1% tween (TBST) and probed overnight at 4° C. with the following antibodies: anti-zebrafish Chk1 (diluted 1:200), anti-zebrafish Chk2 (1:200), anti-P-Cdc2 (1:1000), anti-actin (1:2000), anti-human ATR (1:500) and Stressgen anti-human-caspase-3 (1:500) for zebrafish immunoblots; and anti-caspase-2 (1:200), Upstate anti-caspase-3 (1:500), anti-P-ATM (1:500), anti-ATM (1:500), Santa Cruz anti-human Chk1 (1:1000), Santa Cruz anti-human Chk2 (1:1000), anti-P-Chk1 (1:500), anti-P-Chk2 (1:500), anti-P-H2A.X (1:2000), anti-P-cdc25C (1:1000), anti-P-HSP27 (1:1000), anti-HSP27 (1:1000), anti-P-Cdc2 (1:1000), anti-p53 (1:1000) and anti-GAPDH (1:5000) for immunoblots of human tumor cell lysates. Detailed references for all primary antibodies can be found in the ‘Antibodies’ section elsewhere herein.

Compound: chk1 MO: morpholino against zebrafish chk1 atg/5'UTR, aggcacagccattatgcaatcttcg (SEQ ID NO: 11) (AGGCACAGCCATTATGCAATCTTCG; all phosphorodiamidate morpholino (PMO))
- average reduction in myeloid cell numbers (myeloid cells): 2 fold

Compound: Cn1c2ccccc2c2c3c(c4c5ccccc5n(CCC#N)c4c21)CNC3=O [Gö6976]
- radiosensitizing effect (cell killing) (HeLa cells; Gö6976 1 μM): ~50%
- radiosensitization of HeLa cells (HeLa cells; regardless of BCL2 transgene): ~2 fold
- phosphorylated Chk2 at Thr68 (readout for ATM activity) (ATM): synergistic increases
